From patent US12116363B2, “Combinations for immune-modulation in cancer treatment” (SENHWA BIOSCIENCES, INC., priority 2018, dated 2024)

How the values were obtained:
[1] = system: A2780 ovarian cancer xenografts; test: A2780 ovarian tumor xenograft model, gemcitabine and CX-4945; assay type: in vivo; details: gemcitabine 60 mg/kg i.v., CX-4945 100 mg/kg oral
[2] = system: Colo-205 colorectal cancer model; test: Colo-205 colorectal cancer model, gemcitabine and CX-4945; assay type: in vivo; details: Colo-205 model (FIG. 2)
From the text: The Colo-205 colorectal cancer model is resistant to each individual agent alone (FIG. 2).

4T1 breast cancer cells = test: Tumor growth inhibition in immune-competent syngeneic mouse model 4T1; assay type: in vivo, Balb/C mice; details: 14 day; CX-4945 75 mg/kg oral BID Day 0-13; cisplatin 6 mg/kg i.p. QW Day 0 and 7
Procedure: Efficacy studies of tumor growth inhibition and T cells activities was conducted in an immune-competent syngeneic mouse models, 4T1, that is known to be resistant to the treatment of immune checkpoint inhibitors such as anti-PD1, anti-PD-L1, and anti-CTLA4. The resistance to these antagonists that modulates T cell […] signaling indicate a high immune suppressive tumor microenvironment.
This series of studies were conducted in Balb/C mice that are six to eight weeks old. Breast cancer cells, 4T1, were injected subcutaneously with 3×10^5 cells in 0.1 ml PBS to the right flank of the mice. Mice were randomized for treatment when the mean tumor size reached approximately 80-120 mm^3. Treatment were administered with CX-4945 and/or cisplatin at the doses and schedules described in Table 1. […] Tumors were measured two dimensionally (width×length) with an electronic caliper and tumor volume was calculated with the formula V=(L×W×W)/2, where V is tumor volume, L is tumor length (the longest tumor dimension) and W is tumor width (the longest tumor dimension perpendicular to L). The mice were monitored twice weekly and euthanized when tumor sizes reached approximately 800-1000 mm^3 for flow cytometry analysis.
Anti-tumor activities were measured as % Tumor Growth Inhibition (% TGI) at the time of euthanized. TGI was calculated as % TGI=100×(1−T/C). […]

[3] = system: tumor-infiltrating T cells and MDSC in 4T1 tumor microenvironment; test: Flow cytometry of immune cells in 4T1 tumors; assay type: in vivo, Balb/C mice; details: immune competent mice
Procedure: The composition of immune cells was analyzed with multi-color flow cytometry (FACS) at days when tumor reaches 800-1000 mm^3. Tumors were treated with dissociation media (Miltenyi, CAT #130-096-730) and resuspend in FACS buffer. T cell infiltration was measured by the investigating the number of T cells in the tumor samples. CD4 T, CD8 T, activated CD4 T, and activated CD8 T cells were identified by cell surface marker as CD45^+CD3^+CD4^+, CD45^+CD3^+CD8^+, CD45^+CD3^+CD4^+CD69^+, and CD45^+CD3^+CD8^+CD69^+, respectively. The absolute count of cells was measured by normalized number of cells with counting beads (eBiosciences CAT #01-1234-42) and the weight of each tumor sample. Absolute count of tumor-infiltrating T cells was calculated by the formula as Absolute count (cells/mg)=[(cell count×eBead Volume)/(eBead count×tumor weight)]×eBead concentration.

| Structure (SMILES) | % TGI [1] | Median TTE days [1] | delay in time to endpoint (TTE analysis) [1] | tumor growth [2] | % TGI (4T1 breast cancer cells) | number of MDSC systemically or locally in the tumor microenvironment [3] |
| --- | --- | --- | --- | --- | --- | --- |
| O=C(O)c1ccc2c(c1)nc(Nc1cccc(Cl)c1)c1ccncc12 [CX-4945, silmitasertib] | 20% | 18 days | significant delay in time to endpoint | resistant | 18% | does not decrease |
| N.N.[Cl][Pt][Cl] [Cisplatin, cisplatin, reference compound] |  |  |  |  | 45% |  |
| Nc1ccn([C@@H]2O[C@H](CO)[C@@H](O)C2(F)F)c(=O)n1 [Gemcitabine, gemcitabine, reference compound] | 68% | 28 days | significant delay in time to endpoint | resistant |  |  |
